# Data from patent US8501977B2, “Platinum complex and pharmaceutical composition containing the same” (Unitech Co., Ltd., priority 2008, dated 2013).
# Tested on: U937 (human lymphoma cell)
# Experiment: MTS cell proliferation test, U937 (Embodiment 7)
# Assay type: cell-based
# Details: U937; summary of Table 1 in words
# Procedure: The test solution was prepared by dissolving the (compound 1) into the dimethylsulfoxide ([…]) with the concentration of 8 mg/ml.
# The test was performed by using the U937 (human lymphoma cell) as the cancer cell and using the HEK293 (human fetus kidney cell) as the normal cell.
# These cells were suspended in the each culture medium that the serum of 10% was added, and were dispensed in 96-well plate. And then, these were cultured in 5% CO2 at 37 degrees centigrade during a night. Next day, the test solution was prepared in the culture medium to the various concentrations (0, 4, 8, 16 μg/ml), and was dispensed into the plate that the cells were set preliminarily. And further, these were cultured in 5% CO2 at 37 degrees centigrade for three days.
# The cell proliferation after the medicine addition was measured on the 3rd day from the 1st day after the medicine addition by the […] (Kit for cell proliferation test manufactured by Promega Company).
# The inhibition rate (%) of the cell proliferation was obtained from the measured MTS value by the following formula. Inhibition rate(%)=(1-MTS value of medicine addition group/MTS value of medicine non-addition group)×100
# Because the value which was obtained by the above-mentioned formula represents the inhibition rate of the cell proliferation, the higher the numerionl value is, the higher the medicine effect is. It is deemed that the one whose value is 50% or more has the medicine effect.
smiles,measurement,value
"O=C1[O][Pt]2([NH][C@H]3CCCC34CCC[C@@H]4[NH]2)[O]C1=O (stereo partly drawn) [compound 1, (cis,cis-spiro[4,4]nonane-1,6-diamine) oxalatoplatinum(II) complex]",medicine effect in the cancer cell (U937),remarkable medicine effect
